Measured values reported in patent publication US8198295B2, “Benzonaphthyridines” (Nycomed GmbH, priority 2002, dated 2012).
Counter-ions that a name gives are not always drawn. Like-named read-outs stand apart in the source and are kept apart here.

Tests used:
[1] = biological target: T1, PDE3 (cGMP-inhibited), homogenates of human platelets (Homo sapiens, UniProt Q14432); assay: Inhibition of PDE isoenzymes: PDE3; format: biochemical
T1 construct: from tissue; host or cells: homogenates of human platelets
T1 sequence (Q14432 whole entry): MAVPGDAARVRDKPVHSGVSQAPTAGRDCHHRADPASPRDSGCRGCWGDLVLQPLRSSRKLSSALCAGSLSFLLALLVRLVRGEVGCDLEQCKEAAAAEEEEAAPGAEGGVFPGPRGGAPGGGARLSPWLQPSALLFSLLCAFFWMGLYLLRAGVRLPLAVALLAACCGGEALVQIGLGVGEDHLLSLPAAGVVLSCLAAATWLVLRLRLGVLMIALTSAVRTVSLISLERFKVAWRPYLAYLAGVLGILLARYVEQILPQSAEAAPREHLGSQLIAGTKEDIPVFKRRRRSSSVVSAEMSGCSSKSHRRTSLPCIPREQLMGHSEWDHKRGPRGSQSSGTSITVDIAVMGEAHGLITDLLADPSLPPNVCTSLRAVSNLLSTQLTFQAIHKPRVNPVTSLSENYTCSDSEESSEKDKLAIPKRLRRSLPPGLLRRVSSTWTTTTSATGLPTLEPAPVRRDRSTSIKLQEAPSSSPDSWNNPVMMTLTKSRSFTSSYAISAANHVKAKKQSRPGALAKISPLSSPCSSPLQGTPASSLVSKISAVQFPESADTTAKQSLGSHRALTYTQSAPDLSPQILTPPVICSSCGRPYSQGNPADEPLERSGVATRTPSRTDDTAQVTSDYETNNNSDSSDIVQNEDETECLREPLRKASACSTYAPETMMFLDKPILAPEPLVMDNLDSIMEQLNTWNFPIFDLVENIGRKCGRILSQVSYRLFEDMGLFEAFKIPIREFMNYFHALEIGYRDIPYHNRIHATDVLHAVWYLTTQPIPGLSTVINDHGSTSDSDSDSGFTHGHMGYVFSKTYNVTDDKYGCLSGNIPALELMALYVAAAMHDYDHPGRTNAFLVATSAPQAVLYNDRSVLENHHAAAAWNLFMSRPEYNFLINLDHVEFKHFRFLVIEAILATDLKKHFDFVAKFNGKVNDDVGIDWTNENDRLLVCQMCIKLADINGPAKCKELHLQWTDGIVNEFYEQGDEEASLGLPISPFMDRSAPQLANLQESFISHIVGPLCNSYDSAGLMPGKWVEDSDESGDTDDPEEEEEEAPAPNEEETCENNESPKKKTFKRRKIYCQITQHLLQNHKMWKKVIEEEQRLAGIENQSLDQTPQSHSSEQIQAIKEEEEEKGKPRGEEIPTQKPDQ
Experimental: (§1) The PDE activity was determined according to Thompson et al. (Adv Cycl Nucl Res 10: 69-92, 1979) with some modifications (Bauer and Schwabe, Naunyn-Schmiedeberg's Arch Pharmacol 311: 193-198, 1980). The test samples contained 20 mM Tris (pH 7.4), 5 mM MgCl2, 0.5 μM CAMP or CGMP, [^3H]cAMP or [^3H]cGMP (about 30 000 cpm/sample), the PDE isoenzyme-specific additives described in greater detail below, the Indicated concentrations of inhibitor and an aliquot of the enzyme solution in a total sample volume of 200 μl. Dilution series of the compounds according to the invention were prepared in DMSO and further diluted in the samples [1:100 (v/v)], to give the desired end concentration of the inhibitors at a DMSO concentration of 1% (vN), which for its part has only a minute effect on PDE activity.
(§2) After preincubation at 37° C. for 5 minutes, the reaction was started by addition of the substrate (CAMP or cGMP). The samples were incubated at 37° C. for a further 15 min. The reaction was terminated by addition of 50 μl 0.2 N HCl. After cooling on ice for 10 minutes and addition of 25 μg 5′-nucleotidase (snake venom from Crotalus atrox), the mixture was again incubated at 37° C. for 10 min and the samples were then applied to QAE Sephadex A-25 columns (sample volume 1 ml). The columns were eluted with 2 ml of 30 mM ammonium formate (pH 6.0). The radioactivity of the eluate was measured and corrected by the corresponding blank values (measured in the presence of denatured protein); the blank values were less than 5% of the total radioactivity. In no case did the proportion of hydrolyzed nucleotide exceed 30% of the original substrate concentration.
PDE3 (cGMP-inhibited) was investigated in homogenates of human platelets (see Schudt et al., Biochem Pharmacol 1991: 42, 153-162) using CAMP or cGMP as substrate.
(§3) The IC50 values were determined from the concentration-inhibition curves by nonlinear regression.

[2] = biological target: PDE4 (cAMP-specific), cytosol of human polymorphonuclear leukocytes (PMNL); assay: Inhibition of PDE isoenzymes: PDE4; format: biochemical; conditions: cAMP as substrate, motapizone (1 μM) present
Experimental: as §1, §2
PDE4 (cAMP-specific) was investigated in the cytosol of human polymorphonuclear leukocytes (PMNL) [isolated from leukocyte concentrates, see Schudt et al., Arch Pharmacol 1991: 344, 682-690] using CAMP as substrate. The PDE3 inhibitor motapizone (1 μM) was used to suppress the PDE3 activity emanating from contaminated platelets.
as §3

[3] = homogenates of human platelets, cAMP or cGMP as substrate, read-out: PDE3 [−log IC50, mol/l] (converted)

Compound | IC50 [1] [nM] | PDE4 [−log IC50, mol/l] [2] | IC50 [1, 3] [nM]
CCOc1cc2c(cc1OC)C(c1ccc(C(=O)N(C(C)C)[C@@H](C)COC(=O)Cc3ccccc3)cc1)=N[C@@H]1CCN(C)C[C@H]21 [Compound 1, Phenyl-acetic acid (S)-2-({1-[4-((4aR,10bS)-9-ethoxy-8-methoxy-2-methyl-1,2,3,4a,10b-hexahydro-benzo[c][1,6]naphthyridin-6-yl)-phenyl]-methanoyl}-isopropyl-amino)-propyl ester] | 50.1 | 9.8 −log IC50, mol/l | 
CCOc1cc2c(cc1OC)C(c1ccc(C(=O)N(C(C)C)[C@@H](C)COC(=O)c3ccccc3)cc1)=N[C@@H]1CCN(C)C[C@H]21 [Compound 2] |  | 9 −log IC50, mol/l | 25.1
CCOc1cc2c(cc1OC)C(c1ccc(C(=O)N(C(C)C)[C@@H](C)COC(=O)c3ccc(OC)c(OC)c3)cc1)=N[C@@H]1CCN(C)C[C@H]21 [Compound 3, 3,4-Dimethoxy-benzoic acid(S)2-({1-[4-((4aR,10bS)-9-ethoxy-8-methoxy-2-methyl-1,2,3,4,4a,10b-hexahdro-benzo[c][1,6]naphthyridin-6-yl)-phenyl]-methanoyl}-isopropyl-amino)-propyl ester] |  | 9.4 −log IC50, mol/l | 31.6
CCOc1cc2c(cc1OC)C(c1ccc(C(=O)N(C(C)C)[C@@H](C)COC(=O)c3cc(OC)cc(OC)c3)cc1)=N[C@@H]1CCN(C)C[C@H]21 [Compound 4] |  | 9.3 −log IC50, mol/l | 39.8
CCOc1cc2c(cc1OC)C(c1ccc(C(=O)N(C(C)C)[C@@H](C)COC(C)=O)cc1)=N[C@@H]1CCN(C)C[C@H]21 [Compound 5, Acetic acid (S-2-({1-[4-((4aR,10bS)-9-ethoxy-8-methoxy-2-methyl-1,2,3,4,4a,10b-hexahydro-benzo[c][1,6]naphthyyrdin-6-yl)-phenyl]-methanoyl}-isopropyl-amino)-propyl esterdihydrochloride] |  | 9.2 −log IC50, mol/l | 79.4
CCOc1cc2c(cc1OC)C(c1ccc(C(=O)N(C(C)C)C(C)CCOC(=O)c3ccccc3)cc1)=N[C@@H]1CCN(C)C[C@H]21 (stereo partly drawn) [Compound 6, Benzoic acid 3-({1-[4-((4aR,10bS)-9-ethoxy-8-methoxy-2-methyl-1,2,3,4,4a,10b-hexahydro-benzo[c][1,6]naphthyridin-6-yl)-phenyl]-methanoyl}-isopropyl-amino)-butyl ester] |  | 9.2 −log IC50, mol/l | 100
CCOc1cc2c(cc1OC)C(c1ccc(C(=O)N(C(C)C)C(C)CCOC(=O)Cc3ccccc3)cc1)=N[C@@H]1CCN(C)C[C@H]21 (stereo partly drawn) [Compound 7, Phenyl-acetic acid 3-({1-[4((4aR,10bS)-9-ethoxy-8-methoxy-2-methyl-1,2,3,4,4a,10b-hexahydro-benzo[c][1,6]naphthyridin-6-yl)-phenyl]-methanoyl}-isopropyl-amino)-butyl ester] | 31.6 | 9.6 −log IC50, mol/l | 
CCOc1cc2c(cc1OC)C(c1ccc(C(=O)N(C(C)C)C(C)CCOC(=O)Cc3ccc(OC)c(OC)c3)cc1)=N[C@@H]1CCN(C)C[C@H]21 (stereo partly drawn) [Compound 8, (3.4-Dimethoxy-phenyl)-acetic acid 3-({1-[4-((4aR,10bS)-9-ethoxy-8-methoxy-2-methyl-1,2,3,4,4a.10b-hexahydro-benzo[c][1,6]naphthyridin-6-yl)-phenyl]-methanoyl}-isopropyl-amino)-butyl ester] |  | 9.6 −log IC50, mol/l | 50.1
CCOc1cc2c(cc1OC)C(c1ccc(C(=O)N(C(C)C)[C@@H](C)CO)cc1)=N[C@@H]1CCN(C)C[C@H]21 [Compound 11] |  | 8.9 −log IC50, mol/l | 79.4
CCOc1cc2c(cc1OC)C(c1ccc(C(=O)N(C(C)C)[C@H](C)CO)cc1)=N[C@@H]1CCN(C)C[C@H]21 [Compound 12] |  | 8.8 −log IC50, mol/l | 79.4
